Results on 1 compound are retold here after patent US11945794B2, “Nuclear transport modulators and uses thereof” (Karyopharm Therapeutics Inc., priority 2013, dated 2024).

Experiment [1] relates to RL. Briefly: MTT assay panel. In kind it is cell-based. Particulars: Homo sapiens; RL cells, 72 hours. As for the experimental part:
(§1) Compound 124 was further tested against a panel of selected solid and hematological cancer cell lines and selected normal cell lines in an MTT assay. Briefly, the various cell lines above were plated at different densities on day 1. […] Cell Titer AQueous One was added to each well, and the plates were read in a plate reader at OD 495.

Experiment [2] concerns Tera-1. Nature of the experiment: MTT assay panel. The conditions noted are these: Tera-1 cells, 72 hours. The format is cell-based. How it is done:
as §1

Experiment [3] relates to MV-4-11. Nature of the experiment: MTT assay panel. The format is cell-based. Particulars: Homo sapiens, MV4-11; MV-4-11 cells, 72 hours. How it is done: as §1
The test system of experiment [4] is NCI-H1563. Briefly: MTT assay panel. The format is cell-based. Particulars: Homo sapiens; NCI-H1563 cells, 72 hours. As for the experimental part:
as §1

Experiment [5] deals with HuCCT-1. Nature of the experiment: MTT assay panel. In kind it is cell-based. Particulars: Homo sapiens; HuCCT-1 cells, 72 hours. How it is done:
as §1

For experiment [6], the system named is 3T3. Briefly: MTT assay panel. The format is cell-based. The conditions noted are these: Mus musculus, NIH3T3; 3T3 cells, 72 hours. How it is done: as §1
Experiment [7] deals with TF-1. Nature of the experiment: MTT assay panel. The format is cell-based. Particulars: Homo sapiens; TF-1 cells, 72 hours. As for the experimental part: as §1
Experiment [8] has as its system BL-40. Nature of the experiment: MTT assay panel. The conditions noted are these: BL-40 cells, 72 hours. In kind it is cell-based. How it is done:
as §1

Experiment [9] concerns PATU-8988T. Nature of the experiment: MTT assay panel. In kind it is cell-based. The conditions noted are these: Homo sapiens; PATU-8988T cells, 72 hours. As for the experimental part: as §1
The subject of experiment [10] is Colo-201. Briefly: MTT assay panel. Particulars: Homo sapiens; Colo-201 cells, 72 hours. In kind it is cell-based. How it is done: as §1
The subject of experiment [11] is SNU-398. Briefly: MTT assay panel. In kind it is cell-based. The conditions noted are these: Homo sapiens; SNU-398 cells, 72 hours. How it is done:
as §1

The test system of experiment [12] is AU-565. Nature of the experiment: MTT assay panel. In kind it is cell-based. Particulars: Homo sapiens, AU565; AU-565 cells, 72 hours. How it is done:
as §1

For experiment [13], the system named is Daudi. Nature of the experiment: MTT assay panel. Particulars: Homo sapiens; Daudi cells, 72 hours. In kind it is cell-based. As for the experimental part: as §1
Experiment [14] deals with NCI-H2030. Nature of the experiment: MTT assay panel. In kind it is cell-based. Particulars: Homo sapiens; NCI-H2030 cells, 72 hours. As for the experimental part:
as §1

Experiment [15] has as its system CAPAN-1. Nature of the experiment: MTT assay panel. In kind it is cell-based. The conditions noted are these: Homo sapiens; CAPAN-1 cells, 72 hours. As for the experimental part:
as §1

For experiment [16], the system named is C6. Nature of the experiment: MTT assay panel. In kind it is cell-based. The conditions noted are these: Rattus norvegicus; C6 cells, 72 hours. As for the experimental part:
as §1

For experiment [17], the system named is U-937. Briefly: MTT assay panel. In kind it is cell-based. The conditions noted are these: Homo sapiens; U-937 cells, 72 hours. How it is done:
as §1

Experiment [18] deals with HeLa. Briefly: MTT assay panel. The conditions noted are these: Homo sapiens; HeLa cells, 72 hours. The format is cell-based. As for the experimental part:
as §1

The subject of experiment [19] is DLD-1. Nature of the experiment: MTT assay panel. The conditions noted are these: Homo sapiens; DLD-1 cells, 72 hours. In kind it is cell-based. How it is done:
as §1

Experiment [20] concerns the target T1, wild-type CRM1 (Homo sapiens, UniProt O14980).
T1 construct: expressed in transfected cells; host or cells: U2OS (osteosarcoma) cells stably expressing Rev-GFP
Briefly: Cys 528 mutation assay, Rev-GFP localization. The format is cell-based. The conditions noted are these: 30 μM, 4 hours, U2OS Rev-GFP cells. As for the experimental part: (§2) U2OS (osteosarcoma) cells stably expressing GFP-tagged HIV-Rev fused to the cAMP-dependent protein kinase inhibitor (PM) nuclear export signal (Rev-GFP) were transiently transfected with constructs expressing wild-type CRM1 or mutant CRM1-Cys528Ser for 36 hours. The transient transfection efficiency in the experiment was estimated to be 50%.

Experiment [21] addresses T2, mutant CRM1-Cys528Ser (Homo sapiens, UniProt O14980, C528S).
T2 construct: expressed in transfected cells; host or cells: U2OS (osteosarcoma) cells stably expressing Rev-GFP
Briefly: Cys 528 mutation assay, Rev-GFP localization. The conditions noted are these: 30 μM, U2OS Rev-GFP cells. In kind it is cell-based. How it is done:
as §2

The subject of experiment [22] is MOLT 4 xenograft. Nature of the experiment: MOLT 4 acute lymphoblastic leukemia xenograft model. The format is in vivo, mouse. Particulars: 5 or 15 mg/kg PO daily, SCID mice, compared to vehicle. As for the experimental part: MOLT 4 (CRL-1582) acute lymphoblastic leukemia cells were obtained from ATCC. These cells were grown in RPMI-1640 medium supplemented with 10% fetal bovine serum, 1% penicillin and streptomycin. Cells were sub-cultured by transferring floating cells to a new flask and trypsinizing adherent cells before subculturing at a ratio of 1:4. MOLT 4 cells were harvested by centrifugation and counted using a hemocytometer. Cells were resuspended in PBS at a concentration of 5×10^7 cells per mL. Cells were placed on ice, and then mixed with an equal volume of Matrigel™ (BD Biosciences CB-40234). This mixture was kept on ice and injected into the left flank of mice in a volume of 0.2 mL, equivalent to 5×10^6 cells per mouse. Thirty-two (32) SCID mice were inoculated subcutaneously in the left flank with 5×10^6 MOLT 4 cells. Treatment was initiated when the tumors reached a mean volume of 106.5 mm^3 (standard deviation±33.9 mm^3, CV 31.9%, range 43-181 mm^3). Mice were allocated to four (4) groups of eight (8) mice, […], such that mean tumor volume in each group was within the range of 102 to 111 mm^3. […] With the exception of doxorubicin (which was given IP), all compounds were given by oral gavage. […] Animal weights and conditions were recorded daily, and tumors were measured on Mondays, Wednesdays and Fridays.

Experiment [23] deals with XPO1 cargo proteins: p53, IκB, Foxo1A, PP2A, p21 and p27. Briefly: XPO1 cargo localization assay in U2OS cells (immunofluorescence). In kind it is cell-based. The conditions noted are these: 500 nM, 4 to 24 hours. As for the experimental part: The fixed cells were analyzed by immunofluorescence (IF) for the nuclear localization of the following XPO1 cargo proteins: p53, IκB, Foxo1A, PP2A, p21 and p27. Nuclei were stained with DAPI. Images were taken at 20× magnification.

Experiment [24] has as its target T3, XPO1 (Homo sapiens, UniProt O14980).
T3 construct: endogenous in cells; host or cells: HT1080 (fibrosarcoma) cells
Briefly: XPO1 degradation assay in HT1080 cells (Western blot). In kind it is cell-based. Particulars: five concentrations, 24 hours. The source says:
Western blot analysis of cellular lysates of the treated cells was used to determine the protein expression of XPO1. Beta-actin was used as a loading control.

T2 sequence (O14980 whole entry C528S): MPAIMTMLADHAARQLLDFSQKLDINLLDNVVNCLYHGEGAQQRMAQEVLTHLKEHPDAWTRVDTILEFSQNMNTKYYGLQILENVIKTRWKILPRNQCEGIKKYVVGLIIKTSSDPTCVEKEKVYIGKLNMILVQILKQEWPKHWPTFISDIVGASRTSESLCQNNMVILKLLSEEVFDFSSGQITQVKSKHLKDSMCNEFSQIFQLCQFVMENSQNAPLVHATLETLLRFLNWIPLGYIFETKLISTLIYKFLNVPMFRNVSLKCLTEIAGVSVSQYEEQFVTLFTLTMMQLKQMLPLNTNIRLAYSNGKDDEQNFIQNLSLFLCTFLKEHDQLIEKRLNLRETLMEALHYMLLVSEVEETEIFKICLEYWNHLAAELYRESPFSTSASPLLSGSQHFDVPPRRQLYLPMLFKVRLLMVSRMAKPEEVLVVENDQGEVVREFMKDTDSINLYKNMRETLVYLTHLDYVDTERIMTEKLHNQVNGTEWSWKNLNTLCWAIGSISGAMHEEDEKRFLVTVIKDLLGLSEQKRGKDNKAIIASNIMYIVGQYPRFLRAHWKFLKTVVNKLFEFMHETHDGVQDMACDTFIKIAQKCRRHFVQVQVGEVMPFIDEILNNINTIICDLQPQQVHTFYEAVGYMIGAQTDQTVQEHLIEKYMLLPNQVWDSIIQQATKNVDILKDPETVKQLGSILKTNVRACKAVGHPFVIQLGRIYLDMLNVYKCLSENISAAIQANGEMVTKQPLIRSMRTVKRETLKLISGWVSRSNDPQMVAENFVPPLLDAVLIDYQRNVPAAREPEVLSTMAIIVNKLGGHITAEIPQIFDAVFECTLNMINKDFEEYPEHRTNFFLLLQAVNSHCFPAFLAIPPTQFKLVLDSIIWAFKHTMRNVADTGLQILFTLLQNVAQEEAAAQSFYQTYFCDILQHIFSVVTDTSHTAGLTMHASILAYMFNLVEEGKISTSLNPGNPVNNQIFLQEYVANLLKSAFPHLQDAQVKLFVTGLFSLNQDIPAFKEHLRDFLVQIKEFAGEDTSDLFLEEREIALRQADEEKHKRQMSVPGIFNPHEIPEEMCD
T1 sequence (O14980 whole entry, species assumed): as the sequence (O14980 whole entry C528S) above, with S528C counted along it
T3 sequence (O14980 whole entry): as the sequence (O14980 whole entry C528S) above, with S528C counted along it

Take `NC(=O)/C(=C/n1cnc(-c2cc(C(F)(F)F)cc(C(F)(F)F)c2)n1)c1cncnc1` [Compound 124, (E)-3-(3-(3,5-bis(trifluoromethyl)phenyl)-1H-1,2,4-triazol-1-yl)-2-(pyrimidin-5-yl)acrylamide]: the IC50 came out at 20 nM in [1]; 150 nM in experiment [2]; 100 nM in [3]; 7820 nM in experiment [4]; 50 nM in experiment [5]; 1100 nM in experiment [6]. In addition, the concentration for half-maximal inhibition (IC50) is 110 nM in [7]; 400 nM in [8]; 7170 nM in experiment [9]; > 10000 nM in [10]; 970 nM in experiment [11]; 490 nM in [12]. The 50% inhibitory concentration (IC50) stood at 8 nM in experiment [13]; 2050 nM in experiment [14]; 20 nM in experiment [15]; 150 nM in [16]; 250 nM in experiment [17]; 1050 nM in experiment [18]. The compound further gave a half-maximal inhibitory concentration (IC50) in experiment [19] of 800 nM. Moreover, in experiment [20], the “Rev-GFP localization, wild-type CRM1 co-expressed” value is “Rev-GFP was localized to the cell nucleus and nucleolus”. In addition, in experiment [21], the “Rev-GFP localization, mutant CRM1-Cys528Ser co-expressed” value is “did not induce nuclear localization of Rev-GFP”. The mean tumor volume result in experiment [22] is given as “mean tumor volume was reduced”. Besides, the “nuclear localization of XPO1 cargo proteins” value in experiment [23] is “increased or complete nuclear localization of XPO1 cargoes”. For the same compound, the “protein expression of XPO1” value in experiment [24] is reported as “degraded XPO1 in a dose-dependent manner”.
